Experimental data taken from publication PMC5078090, “In vivo screening and discovery of novel candidate thalidomide analogs in the zebrafish embryo and chicken embryo model systems” (Oncotarget, 2016).
“Also recorded” adds a separate entry of the source.

Legend:
[1] = tested on: fli1:EGFP zebrafish embryos; assay: fli1:EGFP zebrafish embryo angiogenesis assay (intersegmental vessel outgrowth and number); assay type: in vivo; settings: for Anti-angiogenic activity (loss of ISVs or inhibition of ISV outgrowth): fli1:EGFP embryos, 24 h incubation, result in words; for minimal effective concentration: Danio rerio, 24 h, 24 hpf embryos exposed 24 h, screened 1-200 μg/mL, where no activity was seen the concentration shown is the lowest screened
Experimental: To determine if our novel thalidomide analogs (Figure 1) had any effect on in vivo angiogenesis, we used fli1:EGFP embryos which express green fluorescent protein (GFP) on endothelial cells throughout development. Embryos were allowed to develop for 24 hours, then exposed to either vehicle or a compound of interest at the concentration range of 1 to 200 μg/mL. During this time the vasculature is rapidly expanding and developing new, naive intersegmental vessels (ISVs). The embryos were imaged after 24 hours of incubation with the drug (Figure 2A). […] We also observed that the potency of each compound varied.
Figure 2 The effect of novel thalidomide analogs on vessel length fli1:EGFP zebrafish were incubated with vehicle or compounds for 24 hours, at which point vessel outgrowth and number were measured. A. Images of zebrafish exposed to the vehicle or test compounds. […] Treatment with C4 (1.5 μg/mL), C18 (50 μg/mL), C81 (50 μg/mL), C82 (5 μg/mL), C83 (20 μg/mL) and C84 (50 μg/mL) show reduction in vessel out growth (white arrow) and in some cases loss of vessel (white asterisks). B. Stalk length & C. stalk number are reduced. Compounds are shown at the lowest concentration producing an effect. The data represent the mean + the standard error of the mean.
Zebrafish embryos were treated with analogs as previously described. Briefly, fli1:EGFP embryos were collected and embryos were allowed to develop for 24 hours. Embryos were dechorionated manually and exposed to test compounds or vehicle control (0.1% DMSO) for a further 24 hours. Embryos were anesthetized with 0.05% MS222 (Tricaine) (Sigma Aldrich) and live visualization of blood vessels was carried out.
(§1) A broad series of novel thalidomide-based compounds were chemically synthesized (WL, NHG and WDF, NIH), dissolved in DMSO, stored in stock concentrations between 10-100 mg/mL, and used at a final working DMSO concentration of 0.1%. The chemical structures of lead compounds of interest were confirmed by chemical characterization (purity >99.5%). Compounds were screened across a range of concentrations from 1-200 μg/mL to determine the lowest effective concentration.

[2] = tested on: Tg(MPO::EGFP)^114 zebrafish; assay: Tg(MPO::EGFP)^114 zebrafish tail fin clip assay of neutrophil migration to the wound site; assay type: in vivo; settings: for minimal effective concentration: Danio rerio, Neutrophil, fin clipped at 72 hpf, imaged at 24 h, screened 1-200 μg/mL, where no activity was seen the concentration shown is the lowest screened; for Effect on neutrophil migration to the wound site (anti-inflammatory activity): fin clipped 72 hpf embryos, result in words
Source text: To assess the immunomodulatory effects of the thalidomide analogs across the concentration range used in the previous assay, the transgenic zebrafish line Tg(MPO::EGFP)^114 was used. These embryos express GFP tagged myeloperoxidase, marking neutrophils during the inflammatory response, for example following injury. […] This allowed us to subsequently assess the anti-inflammatory activity of each compound by immersing embryos in the test drug or vehicle. The embryos were examined for migration of neutrophils to the wound site. In comparison to control embryos (Figure 3A) compounds with anti-inflammatory properties had reduction of at least 50% of neutrophils recruited to the wound site (Figure 3). […] We also screened the previously identified six anti-angiogenic compounds of interest in the Tg(MPO::EGFP)^114 line.
Figure 3 The effect of thalidomide analogs on the inflammatory response to wound healing A. Zebrafish (72 hpf) embryos transgenic for a fluorescently tagged neutrophil marker Tg(MPO::EGFP)^114 were fin clipped to induce an inflammatory response and exposed to vehicle or a test compound. Broken line indicates the tail fin with cut and area of the wound site. […] The data represent the mean + the standard error of the mean.
Tg(MPO::EGFP)^114 embryos were tail fin clipped as previously detailed and incubated with test compounds or vehicle control at 72 hpf. Fish were imaged at 24 hours and the number of migratory neutrophils present at the wound site were counted. Compounds inducing an at least 50% reduction of neutrophils to the wound site were considered to have anti-inflammatory properties in this system. All larvae were assessed for viability and morphological integrity. A minimum of 10 embryos were used per concentration per drug. Error bars represent standard error of the mean.
as §1

WT Zebrafish = assay: WT zebrafish embryo developmental defect (teratogenicity) screen; assay type: in vivo; settings: for Pectoral fin development / fin length in zebrafish embryos / Eye development / eye diameter in zebrafish embryos: Figure 4, result in words; for Lowest effective concentration, WT Zebrafish assay: screened 1-200 μg/mL, where no activity was seen the concentration shown is the lowest screened
chicken embryos = assay: In ovo chicken embryo teratogenicity assay; assay type: in vivo, white leghorn chicken; settings: for Damage observed: HH stage 17-18 chicken embryos, 100 μg/mL; for Lowest effective concentration, Chicken assay: HH stage 17-18 embryos, where no activity was seen the concentration shown is the lowest screened; for Teratogenicity in these assays: chicken and zebrafish embryo assays together, result in words
Experimental: Compounds of interest were screened in chicken and/or zebrafish embryos (Figure 4), to determine if these compounds are teratogenic. The chicken embryo is well established as a model to determine the action of compounds upon development.
Fertilized white leghorn chicken embryos were incubated at 38°C and staged according to the Hamburger and Hamilton (HH) stages of development. Embryos were tested at HH stage 17-18 (day 2.5). Following membrane removal test compounds or vehicle control solutions were applied over the embryo. The eggs were sealed and the development of the embryos was monitored up to HH stage 30 (E9). A minimum of 3 embryos were used per concentration, per drug.

[3] = applied at HH stage 17-18, result in words

SMILES | Anti-angiogenic activity (loss of ISVs or inhibition of ISV outgrowth) [1] | Lowest effective anti-angiogenic concentration, fli1:EGFP assay (molar) ([1]; inhibition of vessel outgrowth and number, 24 h exposure) [µM] | minimal effective concentration [2] [µg/mL] | Pectoral fin development / fin length in zebrafish embryos (WT Zebrafish) | Lowest effective concentration, WT Zebrafish assay (WT Zebrafish) [µg/mL] | Damage observed (chicken embryos) | Lowest effective concentration, Chicken assay (chicken embryos) [µg/mL] | Defects in chicken embryo development (text and figure legend) (chicken embryos; [3]) | Eye development / eye diameter in zebrafish embryos (WT Zebrafish) | minimal effective concentration [1] [µg/mL] | Effect on neutrophil migration to the wound site (anti-inflammatory activity) [2] | Teratogenicity in these assays (chicken embryos) | Defects in chicken embryo development (text and figure legend) (chicken embryos; in vivo) | Migration of neutrophils relative to control ([2]; fin clipped embryos, Figure 3)
CC(N1Cc2c(N)cccc2C1=O)C12CC3CC(CC(C3)C1)C2 (centres unmarked) [Compound C81] | anti-angiogenic activity | 161.07 | 50 | reductions | 10 | Hemorrhaging, microopthalmia, | 100 | microphthalmia; also recorded: growth reduction and hemorrhaging throughout head |  |  |  |  |  | 
O=C1c2cccc([N+](=O)[O-])c2CN1C12CC3CC(CC(C3)C1)C2 [Compound C84] | anti-angiogenic activity |  | 10 |  | 10 | Hemorrhaging | 100 | hemorrhaging | reductions in eye diameter |  |  |  |  | 
O=C1c2ccccc2C(=O)N1c1nc2ccc(C(F)(F)F)cc2s1 [Compound C59] | without anti-angiogenic activities |  | 100 |  | 100 |  |  | no effect |  | 10 | reduced neutrophil migration | non-teratogenic |  | 
Nc1cccc2c1CN(C1C3CC4CC(C3)CC1C4)C2=O (centres unmarked) [Compound C83] | anti-angiogenic activity |  | 20 |  | 10 | Necrotic YSM, hemorrhaging | 100 | hemorrhaging; also recorded: abnormal blood vessels and necrotic-like regions in the surrounding yolk sac membrane | reductions in eye diameter |  |  |  |  | 
Nc1ccc2c(c1)OC(=O)C(C1CCC(=O)NC1=O)C2=O (centres unmarked) [Compound C24] |  |  | 50 |  | 50 | Necrotic YSM, hemorrhaging | 100 | abnormal blood vessels and necrotic-like regions in the surrounding yolk sac membrane; also recorded: hemorrhaging and necrotic-like damage in the YSM; also recorded: twisted spinal cords, necrotic-like damage in the YSM and high death rates |  | 50 | reduced neutrophil migration |  |  | 
O=C1c2c(F)c(F)c(F)c(F)c2C(=O)N1c1ccc(F)cc1F [CPS49, reference compound] | reduction in vessel outgrowth (white arrow), loss of vascular connectivity and a decrease in the number of forming blood vessels |  |  |  |  |  |  |  |  |  |  |  |  | 
Nc1cccc2c1CN(C1CCC(=O)NC1=O)C2=S (centres unmarked) [Compound C29] |  |  | 5 |  |  | Twisted spines, hemorrhaging | 100 | hemorrhaging and necrotic-like damage in the YSM |  | 10 | reduced neutrophil migration |  | twisted spinal cords, necrotic-like damage in the YSM and high death rates | 
O=C1CCC(N2C(=O)c3ccncc3C2=O)C(=O)N1 (centres unmarked) [Compound C58, 5-Aza-thalidomide] | without anti-angiogenic activities |  | 5 |  | 5 |  | 100 | no effect |  | 10 | reduced neutrophil migration | non-teratogenic |  | 10 % of the control
CC(=O)Oc1ccc2c(c1)C(=O)N(C1CCC(=O)NC1=O)C2=O (centres unmarked) [Compound C18] | anti-angiogenic activity |  | 50 | reductions | 50 | Necrotic YSM, stunted growth | 100 | reduced body size compared to control embryos; also recorded: abnormal blood vessels and necrotic-like regions in the surrounding yolk sac membrane | reductions in eye diameter |  | significantly reduce neutrophil migration |  |  | 
O=C1c2cccc([N+](=O)[O-])c2CN1C1C2CC3CC(C2)CC1C3 (centres unmarked) [Compound C82] | anti-angiogenic activity |  | 5 | reductions | 5 | Limb reduction defect | 100 | limb and digit defects | reductions in eye diameter |  | significantly reduce neutrophil migration |  |  | 
O=C1NC(=S)CCC1N1C(=O)c2cccc([N+](=O)[O-])c2C1=O (centres unmarked) [Compound C7] | without anti-angiogenic activities |  | 10 |  | 10 |  | 100 | no effect |  | 10 | reduced neutrophil migration | non-teratogenic |  | 
O=C1c2ccccc2CN1C12CC3CC(CC(O)(C3)C1)C2 [Compound C86] | without anti-angiogenic activities |  | 100 |  |  |  | 100 | no effect |  | 10 | reduced neutrophil migration | non-teratogenic |  | 
